Reference: US20120142606A1, “TUMOR TARGETING PEPTIDES, THERAPEUTIC AND DIAGNOSTIC COMPOSITIONS COMPRESSING THE PEPTIDES” (priority 2009, published 2012)

Legend:
MCF7 cells [1] = experiment: Peptide binding to MCF7 breast cancer cells by flow cytometry; settings: 0.1-100 μg/ml peptide, 4° C., 20 minutes
Protocol: (§1) To assess peptide binding, MCF7 cells were incubated with increasing doses (0.1-100 μg/ml) of the BK-FITC peptide at 4° C. for 20 minutes. Cells were subsequently washed 4 times with PBS and analyzed by flow cytometry. […] Subsequently, we evaluated the specificity of the BK-peptide for breast cancer cells by incubating MCF7 cells in parallel with human peripheral blood mononuclear cells under the same conditions as mentioned above.
(§2) FIG. 2. […] MCF7 cells (left panel) and human peripheral blood mononuclear cells (PBMC) (right panel) were incubated with increasing doses of peptide for 20 min at 4° C. The cells were subsequently analyzed by flow cytometry for mean fluorescence intensity of FITC, depicted on the y-axis.

[2] = tested on: human peripheral blood mononuclear cells; experiment: Peptide binding to peripheral blood mononuclear cells by flow cytometry (specificity); settings: 0.1-100 μg/ml peptide, 4° C., 20 minutes
Protocol: as §1, §2

MCF7 cells [3] = experiment: Killing of MCF7 cells, propidium iodide staining and flow cytometry; format: cell-based; settings: 50 μg/ml peptide, 24 h
Protocol: (§3) Next, we examined to what extent the peptide specifically kills MCF7 cells. White blood cells (WBCs) were used as a control for normal non-cancerous cells. WBCs were isolated from a healthy donor by ficoll hypaque gradient centrifugation. Red blood cells were removed using a red blood cell lysis buffer and the remaining WBCs were used for the experiment. MCF7 cells and WBCs were incubated with 50 μg/ml peptide or medium only for 24 h. Cells were collected, stained with propidium iodide (PI) and analyzed for apoptosis by flow cytometry (FIG. 3). The data was analyzed by gating on life PI negative cells which is depicted as % viable cells on the y-axis.

White blood cells (WBCs) = experiment: Killing of white blood cells (normal cell control), propidium iodide staining and flow cytometry; format: cell-based; settings: 50 μg/ml peptide, 24 h, WBCs from a healthy donor
Protocol: as §3

For KLAKLAKKLAKLAK-GG-LTVXPWY [BK1-peptide], which “binding to MCF7 cells, mean fluorescence intensity (MFI) of FITC” value (MCF7 cells [1]) is on record?
Its value is “binds to breast cancer cells”.

What about the “binding to peripheral blood mononuclear cells, mean fluorescence intensity of FITC” value [2] of the same substance?
The value was “did not observe binding”.

And the “killing of MCF7 cells (% viable cells, PI negative)” value (MCF7 cells [3])?
The value was “kills MCF7”.

And the “killing of white blood cells (% viable cells, PI negative)” value (White blood cells (WBCs))?
Its value is “but not white blood cells”.

Which “binding to MCF7 cells, mean fluorescence intensity (MFI) of FITC” value (MCF7 cells [1]) does the source give for “KLAKLAKKLAKLAK-GG-LTVXPWY (SEQ ID NO:9) conjugated to fluoresceinisothiocyanate (FITC) [BK1-FITC, BK1-peptide conjugated to fluoresceinisothiocyanate]” here?
The value was “dose dependent increase in mean fluorescence intensity”.
